Measurements published in patent US11739098B2 (BRISTOL-MYERS SQUIBB COMPANY, priority 2017, dated 2023).
pIC50: −log10 of the molar value.

How the values were obtained:
Type in all cases: cell-based
[1] = molecular target: T1, human TLR9 (Homo sapiens, UniProt Q9NR96); assay: TLR9 inhibition reporter assay (HEK-Blue cells, SEAP reporter, ODN2006 stimulation); conditions: HEK-Blue cells overexpressing human TLR9, SEAP reporter, ODN2006 5 nM
T1 construct: host or cells: HEK-Blue cells (HEK293-derived reporter line)
T1 sequence (Q9NR96 26-1032): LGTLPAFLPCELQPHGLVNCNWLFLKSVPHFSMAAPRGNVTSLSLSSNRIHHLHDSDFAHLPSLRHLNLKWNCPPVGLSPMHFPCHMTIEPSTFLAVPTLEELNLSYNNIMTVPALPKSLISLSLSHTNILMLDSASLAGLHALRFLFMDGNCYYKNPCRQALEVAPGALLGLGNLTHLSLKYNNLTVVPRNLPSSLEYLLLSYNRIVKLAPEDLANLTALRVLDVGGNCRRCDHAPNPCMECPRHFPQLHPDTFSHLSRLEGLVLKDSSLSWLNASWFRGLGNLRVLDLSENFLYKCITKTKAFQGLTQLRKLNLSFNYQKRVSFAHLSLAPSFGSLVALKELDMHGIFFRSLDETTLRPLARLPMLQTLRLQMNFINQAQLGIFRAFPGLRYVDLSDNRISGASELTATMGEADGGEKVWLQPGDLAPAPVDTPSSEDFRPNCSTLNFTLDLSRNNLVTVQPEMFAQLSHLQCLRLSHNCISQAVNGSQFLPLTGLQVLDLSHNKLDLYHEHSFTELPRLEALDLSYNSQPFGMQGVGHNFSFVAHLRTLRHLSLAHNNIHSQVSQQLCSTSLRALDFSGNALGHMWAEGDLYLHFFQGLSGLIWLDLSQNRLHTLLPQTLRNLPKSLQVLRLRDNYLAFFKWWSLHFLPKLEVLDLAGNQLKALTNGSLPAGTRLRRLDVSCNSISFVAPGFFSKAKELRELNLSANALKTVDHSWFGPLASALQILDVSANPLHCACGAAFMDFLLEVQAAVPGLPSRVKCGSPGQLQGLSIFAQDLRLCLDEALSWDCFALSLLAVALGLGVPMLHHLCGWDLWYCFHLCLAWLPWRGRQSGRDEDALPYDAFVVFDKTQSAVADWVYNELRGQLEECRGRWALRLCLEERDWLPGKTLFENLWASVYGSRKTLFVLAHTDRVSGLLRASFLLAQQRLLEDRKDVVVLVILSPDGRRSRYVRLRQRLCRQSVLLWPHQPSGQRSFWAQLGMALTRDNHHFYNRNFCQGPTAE
In short: (§1)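 Read-out is SEAP activity in HEK-Blue detection medium after 22 h at 37 °C, converted to percent inhibition against agonist-plus-DMSO and reference-inhibitor controls. Cells saw compound (0.05 nM–50 μM, 30 min, room temperature) before gardiquimod 7.5 μM, R848 15.9 μM or ODN2006 5 nM for TLR7, TLR8 and TLR9, respectively.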

[2] = molecular target: T2, human TLR8 (Homo sapiens, UniProt Q9NR97); assay: TLR8 inhibition reporter assay (HEK-Blue cells, SEAP reporter, R848 stimulation); conditions: HEK-Blue cells overexpressing human TLR8, SEAP reporter, R848 15.9 μM
T2 construct: host or cells: HEK-Blue cells (HEK293-derived reporter line)
T2 sequence (Q9NR97 27-1041): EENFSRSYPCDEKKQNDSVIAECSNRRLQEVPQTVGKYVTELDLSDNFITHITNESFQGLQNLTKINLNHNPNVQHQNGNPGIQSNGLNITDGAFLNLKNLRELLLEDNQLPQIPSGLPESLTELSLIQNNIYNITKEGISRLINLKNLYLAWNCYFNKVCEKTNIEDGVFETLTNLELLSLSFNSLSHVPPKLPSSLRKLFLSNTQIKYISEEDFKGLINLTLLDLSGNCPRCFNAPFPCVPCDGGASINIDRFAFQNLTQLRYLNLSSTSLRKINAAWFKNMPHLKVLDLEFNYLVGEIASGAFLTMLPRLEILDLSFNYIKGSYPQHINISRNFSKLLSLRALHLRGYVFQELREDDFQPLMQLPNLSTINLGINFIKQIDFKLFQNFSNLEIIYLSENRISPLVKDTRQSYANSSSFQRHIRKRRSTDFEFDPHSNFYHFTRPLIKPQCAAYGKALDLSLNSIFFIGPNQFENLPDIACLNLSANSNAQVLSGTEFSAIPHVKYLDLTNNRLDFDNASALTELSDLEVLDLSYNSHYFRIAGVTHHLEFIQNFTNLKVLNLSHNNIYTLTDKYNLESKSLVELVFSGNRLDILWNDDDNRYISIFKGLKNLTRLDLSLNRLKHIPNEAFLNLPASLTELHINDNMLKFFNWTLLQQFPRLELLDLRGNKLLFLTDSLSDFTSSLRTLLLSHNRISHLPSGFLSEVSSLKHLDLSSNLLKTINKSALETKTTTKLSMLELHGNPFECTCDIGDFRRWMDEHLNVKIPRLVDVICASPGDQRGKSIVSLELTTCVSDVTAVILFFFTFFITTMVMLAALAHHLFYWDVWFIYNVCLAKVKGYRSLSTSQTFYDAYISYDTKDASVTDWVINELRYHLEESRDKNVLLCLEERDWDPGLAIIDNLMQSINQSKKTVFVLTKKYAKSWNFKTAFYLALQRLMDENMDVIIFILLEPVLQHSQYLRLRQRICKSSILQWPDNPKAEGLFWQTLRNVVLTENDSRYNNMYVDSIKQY
In short: as §1

[3] = molecular target: T3, human TLR7 (Homo sapiens, UniProt Q9NYK1); assay: TLR7 inhibition reporter assay (HEK-Blue cells, SEAP reporter, gardiquimod stimulation); conditions: HEK-Blue cells overexpressing human TLR7, SEAP reporter, gardiquimod 7.5 μM
T3 construct: host or cells: HEK-Blue cells (HEK293-derived reporter line)
T3 sequence (Q9NYK1 27-1049): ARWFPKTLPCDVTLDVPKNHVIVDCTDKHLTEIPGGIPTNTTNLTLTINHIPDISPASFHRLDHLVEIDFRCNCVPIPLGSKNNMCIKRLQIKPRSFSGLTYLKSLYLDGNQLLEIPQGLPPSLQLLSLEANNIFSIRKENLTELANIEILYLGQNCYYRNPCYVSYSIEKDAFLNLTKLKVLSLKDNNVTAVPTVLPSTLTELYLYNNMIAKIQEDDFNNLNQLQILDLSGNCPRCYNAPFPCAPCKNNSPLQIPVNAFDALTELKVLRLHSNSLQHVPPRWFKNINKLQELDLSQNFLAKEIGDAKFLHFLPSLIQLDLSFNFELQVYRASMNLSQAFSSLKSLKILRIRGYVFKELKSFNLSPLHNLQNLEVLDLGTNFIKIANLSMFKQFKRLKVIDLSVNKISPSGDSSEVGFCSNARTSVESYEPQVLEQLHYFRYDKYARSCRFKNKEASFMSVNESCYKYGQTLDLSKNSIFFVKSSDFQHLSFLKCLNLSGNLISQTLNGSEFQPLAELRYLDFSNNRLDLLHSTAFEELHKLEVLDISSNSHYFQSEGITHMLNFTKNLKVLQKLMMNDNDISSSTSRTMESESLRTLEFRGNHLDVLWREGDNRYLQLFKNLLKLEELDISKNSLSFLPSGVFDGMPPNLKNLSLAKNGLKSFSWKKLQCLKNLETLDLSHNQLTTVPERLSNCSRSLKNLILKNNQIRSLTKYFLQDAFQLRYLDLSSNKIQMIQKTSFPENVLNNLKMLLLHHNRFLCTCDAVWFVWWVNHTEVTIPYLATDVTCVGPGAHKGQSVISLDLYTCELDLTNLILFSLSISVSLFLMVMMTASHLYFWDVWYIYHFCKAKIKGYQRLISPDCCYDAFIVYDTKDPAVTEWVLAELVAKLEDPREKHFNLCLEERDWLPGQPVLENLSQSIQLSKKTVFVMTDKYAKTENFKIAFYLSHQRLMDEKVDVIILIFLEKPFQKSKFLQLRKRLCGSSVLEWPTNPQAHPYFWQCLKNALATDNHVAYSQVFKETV
In short: as §1

Structure (SMILES)	pIC50 [1]	pIC50 [2]	pIC50 [3]
CC(C)c1c(-c2ccc3ncnn3n2)[nH]c2ccc(C3CCN(C4COC4)CC3)cc12 [Example 729, 6-(3-isopropyl-5-(1-(oxetan-3-yl)piperidin-4-yl)-1H-indol-2-yl)-[1,2,4]triazolo[1,5-b]pyridazine]	4.30 to 6.00	6.00 to 7.00	> 7.00
CC(C)c1c(-c2ccnc3[nH]ncc23)[nH]c2ccc(C3CCN(C4C[C@H]5CC[C@@H](C4)N5C)CC3)cc12 (stereo partly drawn) [Example 829, 4-(3-isopropyl-5-(1-((1R,5S)-8-methyl-8-azabicyclo[3.2.1]octan-3-yl)piperidin-4-yl)-1H-indol-2-yl)-1H-pyrazolo[3,4-b]pyridine]	6.00 to 7.00	> 7.00	> 7.00
CC(C)c1c(-c2ccc3[nH]ccc3c2)[nH]c2ccc(C3CCNCC3)cc12 [Example 66, 3-isopropyl-5-(piperidin-4-yl)-1H,1′H-2,5′-biindole]	4.30 to 6.00	4.30 to 6.00	4.30 to 6.00
Cc1cc(-c2[nH]c3ccc(C4CCN(CCCC(F)(F)F)CC4)cc3c2C(C)C)cn2nncc12 [Example 960, 6-(3-isopropyl-5-(1-(4,4,4-trifluorobutyl)piperidin-4-yl)-1H-indol-2-yl)-4-methyl-[1,2,3]triazolo[1,5-a]pyridine]	4.30 to 6.00	6.00 to 7.00	6.00 to 7.00
CCc1c(C)c(-c2[nH]c3ccc(C4CCN(CC(C)(C)O)CC4)cc3c2C(C)C)cn2ccnc12 [Example 777, 1-(4-(2-(8-ethyl-7-methylimidazo[1,2-a]pyridin-6-yl)-3-isopropyl-1H-indol-5-yl)piperidin-1-yl)-2-methylpropan-2-ol]	6.00 to 7.00	> 7.00	> 7.00
CC(C)c1c(-c2cnc3ccnn3c2)[nH]c2ccc(C3CCN(Cc4cnn(C)c4)CC3)cc12 [Example 932, 6-(3-isopropyl-5-(1-((1-methyl-1H-pyrazol-4-yl)methyl)piperidin-4-yl)-1H-indol-2-yl)pyrazolo[1,5-a]pyrimidine]	6.00 to 7.00	4.30 to 6.00	6.00 to 7.00
Cc1cc(-c2[nH]c3ccc(C4CCNCC4)cc3c2C(C)C)cn2cc(C(=O)NC3CC3)nc12 [Example 262, N-cyclopropyl-6-(3-isopropyl-5-(piperidin-4-yl)-1H-indol-2-yl)-8-methylimidazo[1,2-a]pyridine-2-carboxamide]	6.00 to 7.00	> 7.00	> 7.00

Second part, the compound after the results:

pIC50 [1]	pIC50 [2]	pIC50 [3]	Structure (SMILES)
4.30 to 6.00	> 7.00	> 7.00	Cc1nnn2ccc(-c3[nH]c4ccc(C5CCN(C6CCS(=O)(=O)CC6)CC5)cc4c3C(C)C)cc12 [Example 792, 4-(4-(3-isopropyl-2-(3-methyl-[1,2,3]triazolo[1,5-a]pyridin-5-yl)-1H-indol-5-yl)piperidin-1-yl)tetrahydro-2H-thiopyran 1,1-dioxide]
6.00 to 7.00	> 7.00	> 7.00	CNC(=O)CN1CCC(c2ccc3[nH]c(-c4cc(C)n5cncc5c4)c(C(C)C)c3c2)CC1 [Example 440, 2-(4-(3-isopropyl-2-(5-methylimidazo[1,5-a]pyridin-7-yl)-1H-indol-5-yl)piperidin-1-yl)-N-methylacetamide]
> 7.00	6.00 to 7.00	> 7.00	CN(C)CC(=O)N1CCC(c2ccc3[nH]c(-c4ccn5ccnc5c4)c(CC(F)F)c3c2)CC1 [Example 571, 1-(4-(3-(2,2-difluoroethyl)-2-(imidazo[1,2-a]pyridin-7-yl)-1H-indol-5-yl)piperidin-1-yl)-2-(dimethylamino)ethan-1-one]
4.30 to 6.00	> 7.00	> 7.00	Cc1cc(-c2[nH]c3ccc(C4CCN(CC(=O)N(C)C)CC4)cc3c2C(C)C)cn2cc(C(=O)N(C)CCO)nc12 [Example 344, 6-(5-(1-(2-(dimethylamino)-2-oxoethyl)piperidin-4-yl)-3-isopropyl-1H-indol-2-yl)-N-(2-hydroxyethyl)-N,8-dimethylimidazo[1,2-a]pyridine-2-carboxamide]
4.30 to 6.00	> 7.00	6.00 to 7.00	CC(C)c1c(-c2cccn3ncnc23)[nH]c2ccc(C3CCN(CC(C)(C)O)CC3)cc12 [Example 760, 1-(4-(2-([1,2,4]triazolo[1,5-a]pyridin-8-yl)-3-isopropyl-1H-indol-5-yl)piperidin-1-yl)-2-methylpropan-2-ol]
4.30 to 6.00	> 7.00	> 7.00	Cc1cc(-c2[nH]c3ccc(C4CCN(C(=O)[C@@H]5C[C@@H](O)CN5)CC4)cc3c2C(C)C)cc2ncnn12 [Example 537, ((2S,4R)-4-hydroxypyrrolidin-2-yl)(4-(3-isopropyl-2-(5-methyl-[1,2,4]triazolo[1,5-a]pyridin-7-yl)-1H-indol-5-yl)piperidin-1-yl)methanone]
